SMILES strings stand for the structures.

The target in the first assay is p300 HAT domain (residues 1287-1666) (Homo sapiens (Human), UniProt Q09472). Nature of the assay: p300 HAT SPA assay (scintillation proximity assay, acetylation of biotinylated H3(1-21) peptide). The assay is classed as biochemical. To be noted: P300 HAT SPA IC50, p300 HAT domain; average of at least 2 replicate titrations. How it is done: In a typical experiment the p300 HAT inhibitory activity of the compounds described herein was determined in accordance with the following experimental method.
Sequence of p300 HAT domain (residues 1287-1666) (Q09472 1287-1666): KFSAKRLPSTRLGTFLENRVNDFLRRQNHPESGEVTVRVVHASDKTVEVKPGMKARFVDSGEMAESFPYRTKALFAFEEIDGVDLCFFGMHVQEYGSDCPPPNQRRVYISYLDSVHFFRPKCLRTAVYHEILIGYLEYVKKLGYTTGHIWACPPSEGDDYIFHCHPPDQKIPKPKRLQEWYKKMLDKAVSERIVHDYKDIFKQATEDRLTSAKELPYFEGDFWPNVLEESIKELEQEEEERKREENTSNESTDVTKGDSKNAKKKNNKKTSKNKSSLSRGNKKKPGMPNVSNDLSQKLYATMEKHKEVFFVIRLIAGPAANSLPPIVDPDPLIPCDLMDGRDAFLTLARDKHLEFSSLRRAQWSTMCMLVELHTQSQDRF
The expressed protein was purified by Ni2+ affinity, followed by anion exchange chromatography. Appropriate fractions were pooled and buffer exchanged into 20 mM Hepes pH 7.5, 150 mM NaCl, and 1 mM TCEP.
35 μL of the reaction volume was transferred to a 384-well streptavidin FlashPlate (PerkinElmer) using a Bravo liquid handler (Velocity 11) and incubated for 1.5 hr at RT. […] Data were analyzed in Genedata to determine inhibitor IC50 values.
Background: Scintillation proximity formats need no separation of bound from free tracer.
A word on the IC50: it is the concentration needed to halve the response being measured. Consider `O=C(c1cn(CCO)c2ccccc12)C(NCCc1ccc(Cl)cc1)c1ccccc1` (single isomer, unassigned) [128 Isomer 2], for which the IC50 came to 13.4 µM. The same measure, in the same setting: in the case of `O=C(c1cn(CC(F)(F)F)c2ccccc12)C(NCCc1ccc(Cl)cc1)c1ccccc1` (single isomer, unassigned) [130 Isomer 1] it was > 60 µM.

Staying with this assay, now noted: p300 HAT domain; average of at least 2 replicate titrations; read-out: P300 HAT SPA IC50.
Consider `CC(NCCc1ccc(Cl)cc1)C(=O)c1c[nH]c2ccccc12` (single isomer, unassigned) [23 Isomer 2], for which the IC50 was > 60 µM. On the same count and under the same terms, to `CCNC(=O)c1ccc2c(C(=O)C(NCCc3ccc(C#N)cc3)c3ccccc3)cnn2c1` (single isomer, unassigned) [73 Isomer 1] belongs 0.286 µM; to `N#Cc1ccc(CCNC(C(=O)c2c[nH]c3cc(C(=O)NC4CN(CC(F)(F)F)C4)ccc23)c2ccccc2)cc1` (single isomer, unassigned) [162 Isomer 1], 4.86 µM. The same measure, in the same setting: in the case of `Cn1cc(-c2ccc3c(C(=O)C(NCCc4ccc(C#N)cc4)c4ccccc4)c[nH]c3c2)nn1` (single isomer, unassigned) [114 Isomer 1] it was 0.558 µM. As for `CNC(=O)Cc1ccc(CCNC(C(=O)c2c[nH]c3ccccc23)c2ccccc2)cc1` (single isomer, unassigned) [136 Isomer 1], the 50% inhibitory concentration (IC50) was determined as 8.69 µM. Still for that read-out and setting: in the case of `CC(CNC(C(=O)c1cnn2cc(C(=O)NC[C@@H](C)O)ccc12)c1ccccc1)c1ccc(C#N)cc1` (single isomer, unassigned) [70 Isomer 2] it was 0.0643 µM; in that of `COc1cccc2c(C(=O)[C@@H](NCCc3ccc(S(N)(=O)=O)cc3)c3ccccc3)c[nH]c12` (single isomer, unassigned) [144 Isomer 1], 9.95 µM; in that of `O=C(c1c[nH]c2cc(-c3cccnn3)ccc12)C(NCCc1ccc(Cl)cc1)c1ccccc1` (single isomer, unassigned) [112 Isomer 1], 2.03 µM.

For the molecule `CC(C)(O)CNC(=O)c1ccc2c(C(=O)C(NCCc3ccc(C#N)cc3)c3ccccc3)c[nH]c2c1` (single isomer, unassigned) [161 Isomer 1], the half-inhibitory concentration (IC50) is 3.35 µM.

As for `Cn1cc(-c2ccc3c(C(=O)C(NCCc4ccc(C(=O)O)cc4)c4ccccc4)c[nH]c3c2)cn1` (single isomer, unassigned) [138 Isomer 2], the half-inhibitory concentration (IC50) is 4.3 µM. Still for that read-out and setting: to `Cn1cc(C(=O)C(NCCc2ccc(S(N)(=O)=O)cc2)c2ccccc2)c2ccccc21` (single isomer, unassigned) [17 Isomer 1] belongs 7.99 µM. Still for that read-out and setting: in the case of `CN(C)C(=O)c1ccc2c(C(=O)C(NCCc3ccc(C#N)cc3)c3ccccc3)c[nH]c2c1` (single isomer, unassigned) [172 Isomer 1] it was 4.24 µM; in that of `CNC(=O)Cn1cc(-c2ccc3c(C(=O)C(NCCc4ccc(Cl)cc4)c4ccccc4)c[nH]c3c2)cn1` (single isomer, unassigned) [87 Isomer 1], 1.39 µM; in that of `COc1ccc2c(C(=O)C(NCCc3ccc(S(N)(=O)=O)cc3)c3ccccc3)c[nH]c2c1` (single isomer, unassigned) [51 Isomer 1], > 30 µM. Same read-out and setting: to `Cn1cc(-c2ccc3c(C(=O)C(NCCc4ccc(F)cc4)c4ccccc4)c[nH]c3c2)cn1` (single isomer, unassigned) [78 Isomer 1] belongs 12.9 µM. `O=C(c1c[nH]c2ccccc12)C(NCCc1ccc(Cl)cc1)C1CCCC1` (single isomer, unassigned) [25 Isomer 2]: the IC50 is > 60 µM. Still for that read-out and setting: in the case of `CC(CNC(C(=O)c1cnn2cc(C(=O)NC[C@@H](C)O)ccc12)c1ccccc1)c1ccc(C#N)cc1` (single isomer, unassigned) [70 Isomer 3] it was 0.747 µM; in that of `NS(=O)(=O)c1ccc(CCNC(C(=O)c2c[nH]c3cc(-n4ccnc4)ccc23)c2ccccc2)cc1` (single isomer, unassigned) [119 Isomer 1], > 5 µM. As for `O=C(c1c[nH]c2ccccc12)[C@@H](NCCc1ccc(-c2nnc[nH]2)cc1)c1ccccc1` (single isomer, unassigned) [186 Isomer 1], the IC50 is 1.97 µM.

Take `O=C(c1c[nH]c2ccccc12)C(NCCc1ccc(Cl)cc1)c1ccccc1` (single isomer, unassigned) [5 Isomer 2]: the IC50 worked out at 0.867 µM.

Turning to `NS(=O)(=O)c1ccc(CCNC(C(=O)c2c[nH]c3c(C(F)(F)F)cccc23)c2ccccc2)cc1` (single isomer, unassigned) [50 Isomer 2], the half-maximal inhibitory concentration (IC50) was > 30 µM. With `CCNC(=O)c1ccc2c(C(=O)C(NCC(C)c3ccc(C#N)cc3)c3ccccc3)cnn2c1` (single isomer, unassigned) [69 Isomer 3], the IC50 was > 5 µM. Regarding `O=C(c1c[nH]c2cc(N3CCCC3=O)ccc12)C(NCCc1ccc(Cl)cc1)c1ccccc1` (single isomer, unassigned) [74 Isomer 1], the IC50 is 0.154 µM. The same measure, in the same setting: in the case of `CCC(CNC(C(=O)c1c[nH]c2ccccc12)c1ccccc1)c1ccc(Cl)cc1` (single isomer, unassigned) [59 Isomer 3] it was > 30 µM.

With `COc1ccc2c(C(=O)C(NCCc3ccc(Cl)cc3)c3ccccc3)c[nH]c2c1` (single isomer, unassigned) [60 Isomer 1], the IC50 worked out at 27.8 µM. On the same count and under the same terms, to `O=C(c1c[nH]c2ccccc12)C(NCCc1ccc(-c2c[nH]nn2)cc1)c1ccccc1` (single isomer, unassigned) [57 Isomer 1] belongs > 5 µM. Consider `O=C(c1c[nH]c2ccccc12)C(NCCn1ccnc1)c1ccccc1` (single isomer, unassigned) [36 Isomer 1], for which the IC50 is > 60 µM. On to `Cn1cc(-c2ccc3c(C(=O)C(NCCc4ccc(C(N)=O)cc4Cl)c4ccccc4)c[nH]c3c2)cn1` (racemic) [143 racemic, 3-chloro-4-(2-((2-(6-(1-methyl-1H-pyrazol-4-yl)-1H-indol-3-yl)-2-oxo-1-phenylethyl)amino)ethyl)benzamide], for which the IC50 is 0.266 µM. As to `O=C(c1c[nH]c2ccccc12)C(NCCN1CCCCC1=O)c1ccccc1` (single isomer, unassigned) [41 Isomer 2], the 50% inhibitory concentration (IC50) was > 60 µM. As to `O=C(c1c[nH]c2ccccc12)C(NCCn1ccnc1)c1ccccc1` (single isomer, unassigned) [36 Isomer 2], the concentration for half-maximal inhibition (IC50) is > 60 µM. On the same count and under the same terms, to `Cc1nnc(-c2ccc3c(C(=O)C(NCCc4ccc(Cl)cc4)c4ccccc4)c[nH]c3c2)o1` (single isomer, unassigned) [107 Isomer 1] belongs 1.9 µM; to `C[C@H](O)CNC(=O)c1ccc2c(C(=O)C(NCCc3ccc(C#N)cc3)c3ccccc3)c[nH]c2c1` (single isomer, unassigned) [168 Isomer 1], 4.12 µM; to `O=C(c1c[nH]c2ccccc12)C(NCCc1ccc(Cl)cc1)C1CCCC1` (single isomer, unassigned) [25 Isomer 1], > 60 µM. The same measure, in the same setting: to `N#Cc1ccc(CCNC(C(=O)c2c[nH]c3cc(-c4cn[nH]c4)ccc23)c2ccccc2)cc1` (single isomer, unassigned) [98 Isomer 1] belongs 0.493 µM; to `CN1CCC(c2ccc3c(C(=O)C(NCCc4ccc(C#N)cc4)c4ccccc4)c[nH]c3c2)CC1` (single isomer, unassigned) [64 Isomer 2], 0.08 µM; to `CC(=O)N1CCC(c2ccc3c(C(=O)C(NCCc4ccc(Cl)cc4)c4ccccc4)c[nH]c3c2)CC1` (single isomer, unassigned) [65 Isomer 1], > 30 µM.

On to `O=C(c1c[nH]c2cc(-c3ccncn3)ccc12)C(NCCc1ccc(Cl)cc1)c1ccccc1` (single isomer, unassigned) [111 Isomer 2], for which the IC50 is 0.556 µM.

For the molecule `COCCn1cc(-c2ccc3c(C(=O)C(NCCc4ccc(C#N)cc4)c4ccccc4)c[nH]c3c2)cn1` (single isomer, unassigned) [96 Isomer 1], the IC50 amounted to 0.182 µM.

Take `Cn1cnc(-c2ccc3c(C(=O)C(NCCc4ccc(Cl)cc4)c4ccccc4)c[nH]c3c2)c1` (single isomer, unassigned) [106 Isomer 2]: the IC50 amounted to 0.283 µM. Still for that read-out and setting: to `CC(CNC(C(=O)c1cnn2cc(-c3cnn(C)c3)ccc12)c1ccccc1)c1ccc(C#N)cc1` (single isomer, unassigned) [102 Isomer 1] belongs 1.88 µM; to `C[C@@H](NC(=O)c1ccc2c(C(=O)C(NCCc3ccc(C#N)cc3)c3ccccc3)c[nH]c2c1)C(F)(F)F` (single isomer, unassigned) [170 Isomer 2], 4.11 µM.

On to `O=C(O)CCc1ccc2c(C(=O)C(NCCc3ccc(F)cc3)c3ccccc3)c[nH]c2c1` (single isomer, unassigned) [159 Isomer 1], for which the half-inhibitory concentration (IC50) worked out at 25.2 µM. On the same count and under the same terms, to `N#Cc1ccc(CCNC(C(=O)c2c[nH]c3cc(-c4cnn(CCO)c4)ccc23)c2ccccc2)cc1` (single isomer, unassigned) [95 Isomer 1] belongs 0.816 µM; to `CC(NCCc1ccc(Cl)cc1)C(=O)c1c[nH]c2ccccc12` (single isomer, unassigned) [23 Isomer 1], > 60 µM. Take `N#Cc1ccc(CCNC(C(=O)c2c[nH]c3cc(CC(=O)O)ccc23)c2ccccc2)cc1` (single isomer, unassigned) [160 Isomer 2]: the IC50 turned out to be 4.01 µM. Same read-out and setting: in the case of `N#Cc1ccc(CCNC(C(=O)c2c[nH]c3cc(C(=O)NCC(F)(F)F)ccc23)c2ccccc2)cc1` (single isomer, unassigned) [157 Isomer 1] it was 1.2 µM; in that of `N#Cc1ccc(CCNC(C(=O)c2c[nH]c3cc(N4CCCC4)ccc23)c2ccccc2)cc1` (single isomer, unassigned) [125 Isomer 2], 0.224 µM; in that of `Cc1[nH]c2ccccc2c1C(=O)C(NCCc1ccc(S(N)(=O)=O)cc1)c1ccccc1` (single isomer, unassigned) [16 Isomer 1], 49.2 µM.
